In US9920074B2 (ACEA BIOSCIENCES INC., priority 2013, dated 2018):
pIC50: −log10 of the molar value.

Columns and labels:
Type in all cases: cell-based
[1] = molecular target: T1, free Btk protein from Ramos cells (Homo sapiens, UniProt Q06187); assay: Btk target site occupancy ELISA assay; details: 1 h, ELISA, read-out: Btk Occupancy Assay (IC50)
T1 construct: endogenous in cells; host or cells: Ramos cells (ATCC)
Method: (§1) Ramos cells were treated with Compound I-1 at indicated concentrations for 1 h, followed by stimulation with 6 μg/mL of IgM for 30 mm, and then lysed. Lysates were incubated with Compound I-21 (biotin labeled) at a final concentration of 1 μM in a PBS, 0.05% Tween-20, 1% BSA solution while shaking for 1 h at room temperature. Samples were transferred to a streptavidin-coated 96-well ELISA plate and mixed while shaking for 1 h at room temperature. The Btk antibody (BD 611116, 1:1000 dilution in PBS+0.05% Tween-20+0.5% BSA) was then applied and incubated for 1 h at room temperature. After wash, goat anti-mouse-HRP (Pierce 31432, 1:1000 dilution in PBS+0.05% Tween-20+0.5% BSA) was added and incubated for 1 h at room temperature. The ELISA was developed with addition of tetramethyl benzidine (TMB) followed by Stop Solution and read at OD 450 nm.
as §1, with “Compounds” for “Compound I-1”, “anti-IgM” for “IgM”, “diluted” for “dilution”, “tetramethylbenzidine” for “tetramethyl benzidine”

[2] = molecular target: T2, Btk (Tyr223) phosphorylation in Ramos cells (Homo sapiens, UniProt Q06187); assay: Western blotting assay for Btk (Example 73); details: 45 min, 6 μg/mL anti-IgM, read-out: Btk Inhibition
T2 construct: endogenous in cells; host or cells: Ramos cells (ATCC)
Method: (§2) All cell lines were obtained from the American Type Culture Collection and were maintained at 37° C. with 5% CO2. Ramos cell line was maintained in media supplemented with 10% fetal bovine serum, penicillin (100 units/mL) and streptomycin (100 μg/mL). NK-92 cell line was maintained in media supplemented with 10% fetal bovine serum and 10% horse serum, penicillin (100 units/mL) and streptomycin (100 μg/mL), IL-2 10 ng/mL. Goat F(ab′)2 Anti-Human IgM-UNLB was obtained from SouthernBiotech. IL-2 was obtained from Peprotech.
Ramos cells were treated with compounds at indicated doses for 45 min at room temperature, followed by stimulation of 6 μg/mL of anti-IgM for 30 min, and then lysed. Western blots were performed on the cell lysate using Phospho-Btk (Tyr223), Phospho-Btk (Tyr551), Btk, Phospho-PLCγ2 (Tyr1217), PLCγ2, Phospho-p44/42 MAPK (Erk1/2) (Thr202/Tyr204) and p44/42 MAPK (Erk1/2) antibodies (Cell Signaling Technology). The density of blotting band was acquired using ImageJ software, and the IC50 of Btk (Tyr223) phosphorylation was fitted using a non-linear regression model by GraphPad Prism.

[3] = test system: Stat5 phosphorylation in NK-92 cells; assay: Western blotting assay for Stat5; details: NK92, 1 hour, IL-2 stimulation, read-out: Stat5 inhibition
Method: as §2
NK-92 cells were treated with compounds at the dosed indicated for 1 hour in incubator, followed by the IL-2 stimulation for 15 minutes. Cells were then collected and lysed to prepare the cellular extraction. Western blots were performed on cell lysate using Phospho-Jak3, Jak3, Phospho-Stat5, Stat5 antibodies (Cell Signaling Technology). The intensity of blotting band was acquired using Image Lab (Bio-Rad) software, and the IC50 of target was generated with GraphPad Prism.

T2 sequence (Q06187 whole entry): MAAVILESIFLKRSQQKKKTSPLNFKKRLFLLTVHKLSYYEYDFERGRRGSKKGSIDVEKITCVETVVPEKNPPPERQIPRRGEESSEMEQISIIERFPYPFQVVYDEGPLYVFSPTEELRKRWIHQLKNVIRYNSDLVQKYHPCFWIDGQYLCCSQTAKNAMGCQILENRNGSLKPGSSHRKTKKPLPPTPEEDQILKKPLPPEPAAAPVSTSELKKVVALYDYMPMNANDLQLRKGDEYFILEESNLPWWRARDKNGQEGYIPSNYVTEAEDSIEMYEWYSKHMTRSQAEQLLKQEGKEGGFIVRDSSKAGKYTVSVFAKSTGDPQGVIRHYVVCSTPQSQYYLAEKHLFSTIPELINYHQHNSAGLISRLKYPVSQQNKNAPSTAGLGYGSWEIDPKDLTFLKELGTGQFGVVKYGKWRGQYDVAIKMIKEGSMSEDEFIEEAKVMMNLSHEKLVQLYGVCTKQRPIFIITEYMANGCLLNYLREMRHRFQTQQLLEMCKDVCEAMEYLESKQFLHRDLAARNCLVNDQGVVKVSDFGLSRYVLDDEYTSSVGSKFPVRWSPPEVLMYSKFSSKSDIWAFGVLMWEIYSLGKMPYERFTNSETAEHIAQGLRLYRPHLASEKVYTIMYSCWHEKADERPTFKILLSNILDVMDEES
T1 sequence (Q06187 whole entry): as above

| SMILES | pIC50 [1] | pIC50 [2] | pIC50 [3] |
| --- | --- | --- | --- |
| C=CC(=O)Nc1cccc(Oc2nc(Nc3ccc(N[C@H]4CCN(CCF)C4)cc3)ncc2F)c1 [Compound I-20, (S)—N-(3-(5-fluoro-2-(4-(1-(2-fluoroethyl)pyrrolidin-3-ylamino)phenylamino)pyrimidin-4-yloxy)phenyl)acrylamide] | ≥ 8.00 | ≥ 8.00 | – |
| C=CC(=O)Nc1cccc(Oc2nc(Nc3ccc4c(c3)CCN4CCOC)nc3[nH]ccc23)c1 [Compound I-36a, N-(3-(2-(1-(2-methoxyethyl)indolin-5-ylamino)-7H-pyrrolo[2,3-d]pyrimidin-4-yloxy)phenyl)acrylamide] | – | 7.00 to 8.00 | 6.40 to 6.70 |
| C=CC(=O)Nc1cccc(Oc2nc(Nc3cc(F)c(OCCOC)c(F)c3)nc3[nH]ccc23)c1 [Compound I-37a, N-(3-(2-(3,5-difluoro-4-(2-methoxyethoxy)phenylamino)-7H-pyrrolo[2,3-d]pyrimidin-4-yloxy)phenyl)acrylamide] | – | 7.00 to 8.00 | ≤ 6.40 |
| C=CC(=O)Nc1cccc(Oc2nc(Nc3ccc(N(CCC)CCOC)cc3)ncc2OC)c1 [Compound I-38a, N-(3-(5-methoxy-2-(4-((2-methoxyethyl)(propyl)amino)phenylamino)pyrimidin-4-yloxy)phenyl)acrylamide] | – | 7.00 to 8.00 | ≤ 6.40 |
| C=CCN(CCOC)c1ccc(Nc2ncc(OC)c(Oc3cccc(NC(=O)C=C)c3)n2)cc1 [Compound I-39a] | – | 7.00 to 8.00 | ≤ 6.40 |
| C=CC(=O)Nc1cccc(Oc2nc(Nc3ccc(N[C@H]4CCN(CCOC)C4)cc3)nc3[nH]ccc23)c1 [Compound I-40a, (S)—N-(3-(2-(4-(1-(2-methoxyethyl)pyrrolidin-3-ylamino)phenylamino)-7H-pyrrolo[2,3-d]pyrimidin-4-yloxy)phenyl)acrylamide] | – | ≥ 8.00 | ≤ 6.40 |
| C=CC(=O)Nc1cccc(Oc2nc(Nc3ccc(N(C)CCOC)cc3)nc3[nH]ccc23)c1 [Compound I-41a, N-(3-(2-(4-((2-methoxyethyl)(methyl)amino)phenylamino)-7H-pyrrolo[2,3-d]pyrimidin-4-yloxy)phenyl)acrylamide] | – | 7.00 to 8.00 | 6.40 to 6.70 |
| C=CC(=O)Nc1cccc(Oc2nc(Nc3ccc(N(C)[C@H]4CCN(CCOC)C4)cc3)ncc2OC)c1 [Compound I-42a, (S)—N-(3-(5-methoxy-2-(4-((1-(2-methoxyethyl)pyrrolidin-3-yl)(methyl)amino)phenylamino)pyrimidin-4-yloxy)phenyl)acrylamide] | – | ≥ 8.00 | ≤ 6.40 |
| C=CC(=O)Nc1cccc(Oc2nc(Nc3ccc4c(ccn4CCF)c3)ncc2OC)c1 [Compound I-43a, N-(3-(2-(1-(2-fluoroethyl)-1H-indol-5-ylamino)-5-methoxypyrimidin-4-yloxy)phenyl)acrylamide] | – | ≥ 8.00 | 6.40 to 6.70 |
| C=CC(=O)Nc1cccc(Oc2nc(Nc3ccc(OCCS(C)(=O)=O)cc3)ncc2OC)c1 [Compound I-44a, N-(3-(5-methoxy-2-(4-(2-(methylsulfonyl)ethoxy)phenylamino)pyrimidin-4-yloxy)phenyl)acrylamide] | – | ≥ 8.00 | 6.40 to 6.70 |
| C=CC(=O)Nc1cccc(Oc2nc(Nc3ccc4c(ccn4CCOC)c3)ncc2OC)c1 [Compound I-45a, N-(3-(5-methoxy-2-(1-(2-methoxyethyl)-1H-indol-5-ylamino)pyrimidin-4-yloxy)phenyl)acrylamide] | – | 7.00 to 8.00 | 6.40 to 6.70 |
| C=CC(=O)Nc1cccc(Oc2nc(Nc3ccc(N(C)CCOC)nc3)nc3[nH]ccc23)c1 [Compound I-46a, N-(3-(2-(6-((2-methoxyethyl)(methyl)amino)pyridin-3-ylamino)-7H-pyrrolo[2,3-d]pyrimidin-4-yloxy)phenyl)acrylamide] | – | 7.00 to 8.00 | ≤ 6.40 |

More lines, now with the values ahead:

| pIC50 [1] | pIC50 [2] | pIC50 [3] | SMILES |
| --- | --- | --- | --- |
| – | ≥ 8.00 | 6.40 to 6.70 | C=CC(=O)Nc1cccc(Oc2nc(Nc3ccc(N4CCN(CCOC)CC4)cc3)nc3[nH]ccc23)c1 [Compound I-47a, N-(3-(2-(4-(4-(2-methoxyethyl)piperazin-1-yl)phenylamino)-7H-pyrrolo[2,3-d]pyrimidin-4-yloxy)phenyl)acrylamide] |
| – | ≥ 8.00 | 6.40 to 6.70 | C=CC(=O)Nc1cccc(Oc2nc(Nc3ccc(N4CCN(CCOC)CC4)c(F)c3)nc3[nH]ccc23)c1 [Compound I-48a, N-(3-(2-(3-fluoro-4-(4-(2-methoxyethyl)piperazin-1-yl)phenylamino)-7H-pyrrolo[2,3-d]pyrimidin-4-yloxy)phenyl)acrylamide] |
| – | ≥ 8.00 | ≤ 6.40 | C=CC(=O)Nc1cccc(Oc2nc(Nc3ccc(N(C)[C@H]4CCN(CCOC)C4)cc3)nc3[nH]ccc23)c1 [Compound I-49a, (S)—N-(3-(2-(4-((1-(2-methoxyethyl)pyrrolidin-3-yl)(methyl)amino)phenylamino)-7H-pyrrolo[2,3-d]pyrimidin-4-yloxy)phenyl)acrylamide] |
| – | 7.00 to 8.00 | ≤ 6.40 | C=CC(=O)Nc1cccc(Oc2nc(Nc3ccc4c(c3)CN(CCOC)C4)ncc2OC)c1 [Compound I-50a, N-(3-(5-methoxy-2-(2-(2-methoxyethyl)isoindolin-5-ylamino)pyrimidin-4-yloxy)phenyl)acrylamide] |
| – | ≥ 8.00 | ≤ 6.40 | C=CC(=O)Nc1cccc(Oc2nc(Nc3ccc(N(CC)[C@H]4CCN(CCOC)C4)cc3)ncc2OC)c1 [Compound I-51a, (S)—N-(3-(2-(4-(ethyl(1-(2-methoxyethyl)pyrrolidin-3-yl)amino)phenylamino)-5-methoxypyrimidin-4-yloxy)phenyl)acrylamide] |
| – | ≥ 8.00 | ≤ 6.40 | C=CC(=O)Nc1cccc(Oc2nc(Nc3ccc4c(c3)CC(=O)N4CCOC)ncc2OC)c1 [Compound I-52a, N-(3-(5-methoxy-2-(1-(2-methoxyethyl)-2-oxoindolin-5-ylamino)pyrimidin-4-yloxy)phenyl)acrylamide] |
| – | ≥ 8.00 | ≤ 6.40 | C=CC(=O)Nc1cccc(Oc2nc(Nc3ccc(N(C4CC4)[C@H]4CCN(CCOC)C4)cc3)ncc2OC)c1 [Compound I-53a, (S)—N-(3-(2-(4-(cyclopropyl(1-(2-methoxyethyl)pyrrolidin-3-yl)amino)phenylamino)-5-methoxypyrimidin-4-yloxy)phenyl)acrylamide] |
| – | ≥ 8.00 | ≤ 6.40 | C=CC(=O)Nc1cccc(Oc2nc(Nc3ccc(N4CCN(CCS(C)(=O)=O)CC4)cc3)ncc2OC)c1 [Compound I-54a, N-(3-(5-methoxy-2-(4-(4-(2-(methylsulfonyl)ethyl)piperazin-1-yl)phenylamino)pyrimidin-4-yloxy)phenyl)acrylamide] |
| – | ≥ 8.00 | 6.40 to 6.70 | C=CC(=O)Nc1cccc(Oc2nc(Nc3ccc4c(c3)CCN4C(C)=O)ncc2OC)c1 [Compound I-56a, N-(3-(2-(1-acetylindolin-5-ylamino)-5-methoxypyrimidin-4-yloxy)phenyl)acrylamide] |
| – | ≥ 8.00 | 6.40 to 6.70 | C=CC(=O)Nc1cccc(Oc2nc(Nc3ccc(N(C)[C@H]4CCN(CCS(C)(=O)=O)C4)cc3)ncc2OC)c1 [Compound I-57a, (S)—N-(3-(5-methoxy-2-(4-(methyl(1-(2-(methylsulfonyl)ethyl)pyrrolidin-3-yl)amino)phenylamino)pyrimidin-4-yloxy)phenyl)acrylamide] |
| ≥ 8.00 | ≥ 8.00 | ≤ 6.40 | C=CC(=O)Nc1cccc(Oc2nc(Nc3ccc(N(C)[C@H]4CCN(C(C)=O)C4)cc3)ncc2OC)c1 [Compound I-58a, (S)—N-(3-(2-(4-((1-acetylpyrrolidin-3-yl)(methyl)amino)phenylamino)-5-methoxypyrimidin-4-yloxy)phenyl)acrylamide] |
